BindingDB's records for patent US20250091994 (Kobe University, 2025)

target: GTPase HRas [G12V] (Homo sapiens, UniProt P01112, G12V); experiment: In Vitro Ras-Raf Binding Inhibitory Activity Assay
Method: The in vitro Ras-Raf binding inhibitory activity of the compound of the present invention was evaluated by an ELISA method described below. GST-c-Raf-1 RBD diluted with a Ras-Raf binding buffer (50 mM Tris-HCl pH7.4, 150 mM NaCl, 5 mM MgCl2, 1 mM EDTA, and 1% Triton-X100) was added to each well of a glutathione-coated 96-well plate (Thermo Fisher Scientific.), and was incubated at 30° C. for 1 hour, to immobilize Raf on the well. The unbound free Raf was eliminated by washing the well with the Ras-Raf binding buffer three times. Subsequently, GTPTS-bound HRasG12V diluted with the Ras-Raf binding buffer and each compound solution (final DMSO concentration: 10%) were applied to each well, and the resulting mixture was then incubated at 30° C. for 1 hour, so that Ras and Raf were allowed to bind to each other. Thereafter, the plate was washed with the Ras-Raf binding buffer twice, and was then subjected to a blocking treatment at room temperature for 20 minutes, using TBS-Tween {10 mM Tris-HCl pH 7.4, 150 mM NaCl, and 0.05% (w/v) Tween-20}-5% (w/v) bovine serum albumin (BSA). After that, an anti-HRas antibody (C-20, Santa Cruz) or an anti-HRas antibody (259, Santa Cruz), which had been 1000 times diluted with TBS-Tween-5% BSA, was added to the reaction mixture, and incubated at room temperature for 1 hours. After the treatment with the primary antibody, the plate was washed with TBS-Tween-5% BSA three times, and a horseradish peroxidase-labeled secondary antibody against rabbit immunoglobulin G (GE Healthcare) of 1000 times diluted with TBS-Tween-5% BSA, was added to the plate, followed by incubation at room temperature for 1 hour. After the treatment with the secondary antibody, the plate was washed with TBS-Tween-5% BSA three times, and a substrate solution (TMB) was then added to the plate, followed by incubation at room temperature for 15 minutes for coloration. Finally, 2 M H2SO4 was added to stop color development (coloration reaction kit: Nacalai Tesque).

GTPase HRas [G12V], sequence (P01112 whole entry G12V, looked up): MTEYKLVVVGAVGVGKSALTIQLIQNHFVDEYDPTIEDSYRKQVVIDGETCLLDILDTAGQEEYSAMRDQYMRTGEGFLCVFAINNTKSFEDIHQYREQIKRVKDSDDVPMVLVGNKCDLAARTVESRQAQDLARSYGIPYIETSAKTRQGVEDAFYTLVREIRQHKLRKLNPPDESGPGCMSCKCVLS

| IC50 | SMILES |
| --- | --- |
| 0.61 µM | CC(=O)N1/C(=C\c2cc(Cl)c3cc(C(=O)N4CCOCC4)ccc3n2)C(=O)c2ccccc21 [US20250091994, Example 82] |
| 0.9 µM | CC(=O)N1/C(=C\c2ccc3cc(CNC(=O)CN4CCOCC4)ccc3n2)C(=O)c2ccccc21 [US20250091994, Example 80] |
| 1.3 µM | CC(=O)N1/C(=C\c2cc(-c3ccccc3-c3ccccc3)c3cc(C(=O)N4CCN(C)CC4)ccc3n2)C(=O)c2ccccc21 [US20250091994, Example 140] |
| 7.2 µM | COc1cc(/C=C2/C(=O)c3ccccc3N2C(C)=O)ccc1OS(C)(=O)=O [US20250091994, Example 21] |
| 0.42 µM | CC(=O)N1/C(=C/c2nc3cc(/C=C/C(=O)N4CCOCC4)ccc3s2)C(=O)c2ccccc21 [US20250091994, Example 110] |
| 0.7 µM | CC(=O)N1/C(=C/c2nc3ccc(C(=O)N4CCOCC4)cc3s2)C(=O)c2ccccc21 [US20250091994, Example 58] |
| 2.3 µM | CC(=O)N1/C(=C/c2ncc(C(=O)N3CCOCC3)s2)C(=O)c2ccccc21 [US20250091994, Example 68] |
| 10 µM | COc1cc(C=C2C(=O)c3ccc(F)cc3N2C(C)=O)ccc1OCC(=O)N1CCOCC1 [US20250091994, Example 103] |
| 0.6 µM | CC(=O)N1/C(=C/c2cc(-c3cccc4[nH]ncc34)c3cc(C(=O)N4CCOCC4)ccc3n2)C(=O)c2ccccc21 [US20250091994, Example 145] |
| 9.6 µM | CC(=O)N1C(=Cc2ccc(OCC(N)=O)c(Cl)c2)C(=O)c2ccccc21 [US20250091994, Example 17] |
| 1.4 µM | CC(=O)N1C(=Cc2ccc3cc(OCCO)ccc3n2)C(=O)c2ccccc21 [US20250091994, Example 126] |
| 1.6 µM | CC(=O)N1/C(=C\c2ccc3cc(CN(C4CCOCC4)S(C)(=O)=O)ccc3n2)C(=O)c2ccccc21 [US20250091994, Example 76] |
| 2.2 µM | COC1(COC(=O)N2CCN(C(=O)c3ccc4nc(/C=C5/C(=O)c6ccccc6N5C(C)=O)ccc4c3)CC2)COC1 [US20250091994, Example 120] |
| 0.3 µM | CC(=O)N1/C(=C\c2cc(-c3cccc(-c4cnn(C)c4)c3)c3cc(C(=O)N4CCOCC4)ccc3n2)C(=O)c2ccccc21 [US20250091994, Example 149] |
| 2.1 µM | CC(=O)N1/C(=C\c2cc(N3CCC(C#N)CC3)c3cc(C(=O)N4CCOCC4)ccc3n2)C(=O)c2ccccc21 [US20250091994, Example 87] |
| 0.7 µM | CC(=O)N1CCc2c(cccc2-c2cc(/C=C3/C(=O)c4ccccc4N3C(C)=O)nc3ccccc23)C1 [US20250091994, Example 193] |
| 2 µM | CC(=O)N1C(=Cc2cc(-c3ccccc3-c3cnn(C)c3)c3cc(CNC4CCOCC4)ccc3n2)C(=O)c2ccccc21 [US20250091994, Example 206] |
| 5.9 µM | COc1cc(/C=C2/C(=O)c3ccccc3N2C(C)=O)ccc1OC[S+](C)[O-] (stereo not given) [US20250091994, Example 25] |
| 0.96 µM | CC(=O)N1/C(=C\c2ccc3cc(C(=O)N4CC(C)OC(C)C4)ccc3n2)C(=O)c2ccccc21 (stereo not given) [US20250091994, Example 44] |
| 2.1 µM | COc1cc(/C=C2/C(=O)c3cccnc3N2C(C)=O)ccc1OCC(=O)N1CCOCC1 [US20250091994, Example 51] |
| 0.5 µM | CC(=O)N1CCc2c(cccc2-c2cc(/C=C3/C(=O)c4ccccc4N3C(C)=O)nc3ccc(C(=O)N4CCOCC4)cc23)C1 [US20250091994, Example 146] |
| 12 µM | COc1cc(/C=C2/C(=O)c3cc(F)ccc3N2C(C)=O)ccc1OCC(=O)N1CCOCC1 [US20250091994, Example 50] |
| 1.1 µM | CC(=O)N1/C(=C\c2cc(N=[N+]=[N-])c3cc(C(=O)N4CCOCC4)ccc3n2)C(=O)c2ccccc21 [US20250091994, Example 81] |

| IC50 | SMILES |
| --- | --- |
| 0.8 µM | CC(=O)N1/C(=C\c2cc(-c3cn(C)cn3)c3cc(C(=O)N4CCOCC4)ccc3n2)C(=O)c2ccccc21 [US20250091994, Example 192] |
| 0.9 µM | CC(=O)N1/C(=C\c2cc(-c3ccncc3)c3cc(C(=O)N4CCOCC4)ccc3n2)C(=O)c2ccccc21 [US20250091994, Example 184] |
| 0.7 µM | CC(=O)N1CCc2c(cccc2-c2cc(/C=C3/C(=O)c4ccccc4N3C(C)=O)nc3ccc(CNC4CCOCC4)cc23)C1 [US20250091994, Example 207] |
| 0.35 µM | COCC(O)CN1CCN(C(=O)c2ccc3nc(/C=C4/C(=O)c5ccccc5N4C(C)=O)cc(-c4ccccc4-c4ccccc4)c3c2)CC1 (stereo not given) [US20250091994, Example 96] |
| 2.8 µM | CC(=O)N1C(=Cc2cc(-c3ccc(Oc4ccccc4)cc3)c3cc(C(=O)N4CCOCC4)ccc3n2)C(=O)c2ccccc21 [US20250091994, Example 92] |
| 1.1 µM | CC(=O)N1C(=Cc2ccc3cc(/C=C/C(=O)NC4CCN(C5COC5)CC4)ccc3n2)C(=O)c2ccccc21 [US20250091994, Example 79] |
| 29 µM | CC(=O)N1/C(=C\c2ccc3cc(C(=O)N4CCC(c5ccccc5)CC4)ccc3n2)C(=O)c2ccccc21 [US20250091994, Example 114] |
| 1 µM | CC(=O)N1CCCC(c2cc(/C=C3/C(=O)c4ccccc4N3C(C)=O)nc3ccc(C(=O)N4CCOCC4)cc23)C1 (stereo not given) [US20250091994, Example 179] |
| 13 µM | COc1cc(/C=C2/C(=O)c3ccccc3N2C(C)=O)ccc1CCC(N)=O [US20250091994, Example 31] |
| 0.57 µM | CC(=O)N1/C(=C/c2nc3ccc(CNS(C)(=O)=O)cc3s2)C(=O)c2ccccc21 [US20250091994, Example 56] |
| 5.6 µM | CC(=O)N1C(=Cc2ccc(C(=O)N3CCOCC3)cc2)C(=O)c2ccccc21 [US20250091994, Example 67] |
| 3.7 µM | CC(=O)N1/C(=C\c2ncc(C(=O)N3CCOCC3)s2)C(=O)c2ccccc21 [US20250091994, Example 38] |
| 2.8 µM | COCC(O)CN1CCN(C(=O)c2ccc3nc(/C=C4/C(=O)c5ccccc5N4C(C)=O)ccc3c2)CC1 (stereo not given) [US20250091994, Example 42] |
| 8.4 µM | COCCN1CCN(C(=O)c2ccc3nc(/C=C4/C(=O)c5ccccc5N4C(C)=O)ccc3c2)CC1 [US20250091994, Example 116] |
| 0.78 µM | CC(=O)N1/C(=C/c2nc3ccc(C(=O)N4CC(C)OC(C)C4)cc3s2)C(=O)c2ccccc21 (stereo not given) [US20250091994, Example 101] |
| 1.5 µM | CC(=O)N1/C(=C\c2ccc3cc(C(=O)N4CCC(C(=O)O)CC4)ccc3n2)C(=O)c2ccccc21 [US20250091994, Example 129] |
| 0.84 µM | CC(=O)N1C(=Cc2cc(-c3ccccc3)c3cc(C(=O)N4CCOCC4)ccc3n2)C(=O)c2ccccc21 [US20250091994, Example 83] |
| 0.46 µM | CC(=O)N1C(=Cc2nc3cc(/C=C/C(=O)N4CCOCC4)ccc3s2)C(=O)c2ccccc21 [US20250091994, Example 109] |
| 2.1 µM | COc1cc(/C=C2/C(=O)c3ccccc3N2C(C)=O)ccc1OCS(C)(=O)=O [US20250091994, Example 24] |
| 2.7 µM | COc1cc(/C=C2/C(=O)c3ccccc3N2C(C)=O)ccc1NC(=O)CN1CCOCC1 [US20250091994, Example 27] |
| 2.8 µM | CC(=O)N1/C(=C\c2ccc3cc(C#N)ccc3n2)C(=O)c2ccccc21 [US20250091994, Example 34] |
| 0.8 µM | CC(=O)N1CCc2ccc(-c3c(C(=O)N4CCOCC4)ccc4nc(/C=C5/C(=O)c6ccccc6N5C(C)=O)ccc34)cc2C1 [US20250091994, Example 201] |
